From the supplement of paper PMC10307832 come the findings set out here.

Test in all cases: relative viability (nuclei count vs DMSO), 5 days (fraction); higher = more cells survive
Compound in assay [1]: CN(c1ncccc1CNc1nc(Nc2ccc3c(c2)CC(=O)N3)ncc1C(F)(F)F)S(C)(=O)=O
The method, boiled down: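 Viability was read as treated-well nuclei divided by vehicle-well nuclei, using the median across plates. Lung cancer cell lines in 1536-well plates were kept overnight at 37 °C, pinned with five √10-spaced library-drug doses, and after 5 days were Hoechst-stained, imaged at 4× and counted in MetaXpress. Plates passed only with control CV below 25% and at least one doubling.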

Compound in assay [2]: CN(c1ncccc1CNc1nc(Nc2ccc3c(c2)CC(=O)N3)ncc1C(F)(F)F)S(C)(=O)=O + CC1(C)CCC(c2ccc(Cl)cc2)=C(CN2CCN(c3ccc(C(=O)NS(=O)(=O)c4ccc(N[C@H](CCN5CCOCC5)CSc5ccccc5)c(S(=O)(=O)C(F)(F)F)c4)cc3)CC2)C1 [Navitoclax] (partner 0.5 µM)
The method, boiled down:
(§1)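 Dosing by pin tool came one day after lung cancer cell lines were seeded in 1536-well plates, using either one drug or a fixed anchor-drug dose plus five library-drug doses (not always all listed) in √10 steps. After 5 days, nuclei were counted on 4× images. Relative viability is treated-well nuclei count divided by vehicle-well nuclei count, and values are medians of duplicate plates.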

Compound in assay [3]: CN(c1ncccc1CNc1nc(Nc2ccc3c(c2)CC(=O)N3)ncc1C(F)(F)F)S(C)(=O)=O + Cc1cc(Nc2cc(N3CCN(C)CC3)nc(Sc3ccc(NC(=O)C4CC4)cc3)n2)n[nH]1 [Tozasertib] (partner 0.1 µM)
The method, boiled down: as §1

Compound in assay [4]: CN(c1ncccc1CNc1nc(Nc2ccc3c(c2)CC(=O)N3)ncc1C(F)(F)F)S(C)(=O)=O + N=C(N)NC(=N)NCCc1ccccc1 [Phenformin] (partner 250 µM)
The method, boiled down:
as §1

With NCI-H2228, the relative viability in assay [1] (0.01 µM) came to 1.01; in assay [1] (0.03162 µM), 1.23; in assay [1] (0.1 µM), 1.23; in assay [1] (0.3162 µM) it was 1.01; in assay [1] (1 µM) it was 0.921; in assay [2] (first compound 0.01 µM), 0.732. In addition, the relative viability in assay [2] (first compound 0.03162 µM) was determined as 1.18; in assay [2] (first compound 0.1 µM), 0.783; in assay [2] (first compound 0.3162 µM) it was 0.755; in assay [2] (first compound 1 µM) it was 0.741; in assay [3] (first compound 0.01 µM), 0.271; in assay [3] (first compound 0.03162 µM), 0.243. In addition, the relative viability in assay [3] (first compound 0.1 µM) came out at 0.249; in assay [3] (first compound 0.3162 µM), 0.239; in assay [3] (first compound 1 µM), 0.207; in assay [4] (first compound 0.01 µM) it was 0.321; in assay [4] (first compound 0.03162 µM), 0.471; in assay [4] (first compound 0.1 µM) it was 0.306. The results for the relative viability in assay [4] (first compound 0.3162 µM) and in assay [4] (first compound 1 µM) were 0.331 and 0.292, respectively.

NCI-H2347: the relative viability is 1.09 in assay [1] (0.01 µM); 0.942 in assay [1] (0.03162 µM); 0.978 in assay [1] (0.1 µM); 0.877 in assay [1] (0.3162 µM); 0.829 in assay [1] (1 µM); 0.879 in assay [2] (first compound 0.01 µM). Moreover, the relative viability in assay [2] (first compound 0.03162 µM) came out at 0.69; in assay [2] (first compound 0.1 µM) it was 0.699; in assay [2] (first compound 0.3162 µM), 0.701; in assay [2] (first compound 1 µM), 0.592; in assay [3] (first compound 0.01 µM), 0.544; in assay [3] (first compound 0.03162 µM) it was 0.626. Further, the relative viability in assay [3] (first compound 0.1 µM) turned out to be 0.672; in assay [3] (first compound 0.3162 µM), 0.44; in assay [3] (first compound 1 µM), 0.478; in assay [4] (first compound 0.01 µM) it was 0.37; in assay [4] (first compound 0.03162 µM) it was 0.38; in assay [4] (first compound 0.1 µM) it was 0.6. The figures for the relative viability in assay [4] (first compound 0.3162 µM) and in assay [4] (first compound 1 µM) were 0.407 and 0.221, respectively.

On to NCI-H2405, for which the relative viability in assay [1] (0.01 µM) was 1.06; in assay [1] (0.03162 µM) it was 0.935; in assay [1] (0.1 µM), 0.931; in assay [1] (0.3162 µM), 0.8; in assay [1] (1 µM), 0.82; in assay [2] (first compound 0.01 µM), 0.802. The relative viability stood at 0.993 in assay [2] (first compound 0.03162 µM); 0.66 in assay [2] (first compound 0.1 µM); 0.705 in assay [2] (first compound 0.3162 µM); 0.679 in assay [2] (first compound 1 µM); 0.696 in assay [3] (first compound 0.01 µM); 0.719 in assay [3] (first compound 0.03162 µM). Also, the relative viability in assay [3] (first compound 0.1 µM) was 0.715; in assay [3] (first compound 0.3162 µM), 0.534; in assay [3] (first compound 1 µM), 0.499; in assay [4] (first compound 0.01 µM) it was 0.402; in assay [4] (first compound 0.03162 µM), 0.376; in assay [4] (first compound 0.1 µM), 0.385. In addition, the relative viability turned out to be 0.248 in assay [4] (first compound 0.3162 µM) and 0.392 in assay [4] (first compound 1 µM).

On to NCI-H3122, for which the relative viability worked out at 0.994 in assay [1] (0.01 µM); 1.06 in assay [1] (0.03162 µM); 1.01 in assay [1] (0.1 µM); 1.03 in assay [1] (0.3162 µM); 0.953 in assay [1] (1 µM); 1.07 in assay [2] (first compound 0.01 µM). Moreover, the relative viability in assay [2] (first compound 0.03162 µM) was 1.01; in assay [2] (first compound 0.1 µM) it was 0.941; in assay [2] (first compound 0.3162 µM) it was 0.977; in assay [2] (first compound 1 µM) it was 0.936; in assay [3] (first compound 0.01 µM) it was 0.61; in assay [3] (first compound 0.03162 µM), 0.383. The relative viability in assay [3] (first compound 0.1 µM) amounted to 0.403; in assay [3] (first compound 0.3162 µM), 0.402; in assay [3] (first compound 1 µM) it was 0.341; in assay [4] (first compound 0.01 µM), 0.389; in assay [4] (first compound 0.03162 µM) it was 0.373; in assay [4] (first compound 0.1 µM), 0.36. Further, the relative viability in assay [4] (first compound 0.3162 µM) was determined as 0.317; in assay [4] (first compound 1 µM), 0.354.

Take PC-3 [JPC-3]: the relative viability was 0.998 in assay [1] (0.01 µM); 1.05 in assay [1] (0.03162 µM); 0.981 in assay [1] (0.1 µM); 1.03 in assay [1] (0.3162 µM); 0.943 in assay [1] (1 µM); 0.821 in assay [2] (first compound 0.01 µM). Moreover, the relative viability worked out at 0.863 in assay [2] (first compound 0.03162 µM); 0.823 in assay [2] (first compound 0.1 µM); 0.833 in assay [2] (first compound 0.3162 µM); 0.787 in assay [2] (first compound 1 µM); 0.903 in assay [3] (first compound 0.01 µM); 0.907 in assay [3] (first compound 0.03162 µM). Besides, the relative viability is 0.913 in assay [3] (first compound 0.1 µM); 0.847 in assay [3] (first compound 0.3162 µM); 0.832 in assay [3] (first compound 1 µM); 0.522 in assay [4] (first compound 0.01 µM); 0.488 in assay [4] (first compound 0.03162 µM); 0.505 in assay [4] (first compound 0.1 µM). Besides, the relative viability in assay [4] (first compound 0.3162 µM) is 0.471; in assay [4] (first compound 1 µM), 0.481.
